Assay results taken from PMC6122390, “Synthesis of 1,4-imino-L-lyxitols modified at C-5 and their evaluation as inhibitors of GH38 α-mannosidases” (Beilstein Journal of Organic Chemistry, 2018).
Like-named read-outs stand apart in the source and are kept apart here.

Legend:
[1] = biological target: Drosophila melanogaster Golgi α-mannosidase II (GMIIb) (Drosophila melanogaster, UniProt Q9VF33); experiment: Inhibition of Golgi α-mannosidase II (GMIIb), pNP-Man substrate; format: biochemical; conditions: for IC50: 2 mM pNP-Man; for fold decrease in inhibition activity against GMIIb in comparison with 1a: relative to 1a
Drosophila melanogaster Golgi α-mannosidase II (GMIIb), sequence (Q9VF33 entry or part of it): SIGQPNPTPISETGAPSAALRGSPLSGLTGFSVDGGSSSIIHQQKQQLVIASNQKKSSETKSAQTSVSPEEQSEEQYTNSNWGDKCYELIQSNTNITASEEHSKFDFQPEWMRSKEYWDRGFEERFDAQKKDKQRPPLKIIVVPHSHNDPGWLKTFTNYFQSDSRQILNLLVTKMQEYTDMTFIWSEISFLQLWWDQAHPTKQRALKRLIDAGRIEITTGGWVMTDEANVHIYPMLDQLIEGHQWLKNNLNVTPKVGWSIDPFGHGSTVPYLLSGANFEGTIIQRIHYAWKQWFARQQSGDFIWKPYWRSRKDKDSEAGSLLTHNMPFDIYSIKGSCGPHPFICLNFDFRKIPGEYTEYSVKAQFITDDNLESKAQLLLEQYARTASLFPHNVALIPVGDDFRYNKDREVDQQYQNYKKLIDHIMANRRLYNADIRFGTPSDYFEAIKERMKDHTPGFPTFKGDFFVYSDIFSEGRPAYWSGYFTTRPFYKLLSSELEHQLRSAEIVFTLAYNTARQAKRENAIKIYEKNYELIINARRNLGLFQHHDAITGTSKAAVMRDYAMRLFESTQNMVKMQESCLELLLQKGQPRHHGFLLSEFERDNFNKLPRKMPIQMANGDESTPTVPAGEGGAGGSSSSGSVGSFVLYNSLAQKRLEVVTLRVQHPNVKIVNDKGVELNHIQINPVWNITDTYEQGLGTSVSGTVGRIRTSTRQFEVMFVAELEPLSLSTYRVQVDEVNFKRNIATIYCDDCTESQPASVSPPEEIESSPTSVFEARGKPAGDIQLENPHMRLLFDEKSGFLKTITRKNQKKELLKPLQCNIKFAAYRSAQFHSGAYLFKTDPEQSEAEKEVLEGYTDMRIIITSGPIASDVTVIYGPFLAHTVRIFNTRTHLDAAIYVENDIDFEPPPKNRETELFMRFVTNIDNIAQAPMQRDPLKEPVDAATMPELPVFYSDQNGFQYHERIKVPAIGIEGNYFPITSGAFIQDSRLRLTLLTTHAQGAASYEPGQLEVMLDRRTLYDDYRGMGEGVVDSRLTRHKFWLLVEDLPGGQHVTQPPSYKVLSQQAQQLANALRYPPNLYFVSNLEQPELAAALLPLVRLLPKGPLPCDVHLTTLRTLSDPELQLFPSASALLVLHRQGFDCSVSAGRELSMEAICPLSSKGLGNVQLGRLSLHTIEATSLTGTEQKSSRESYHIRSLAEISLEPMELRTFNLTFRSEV
Experimental: (§1) The purification and characterization of recombinant Drosophila melanogaster Golgi α-mannosidase II [9] (GMIIb) and lysosomal α-mannosidase II (LManII) was carried out as already described. Activity of prepared mannosidases was measured using p-nitrophenyl-α-D-mannopyranoside (pNP-Man; Sigma-Aldrich) as a substrate at 2 mM concentration prepared from a 100 mM stock in dimethyl sulfoxide by dilution in 50 mM acetate buffer at optimal pH for the enzymes (Jack bean α-mannosidase (JBMan) at pH 5.0, Golgi α-mannosidase (GMIIb) at pH 6.0 and lysosomal α-mannosidase (LManII) at pH 5.2) and 0.5 μL of the enzyme (0.05 µg of protein for Jack bean α-mannosidase), in a total volume of 50 μL for 1–2 h at 37 °C. GMIIb was assayed in the presence of 0.5 mM CoCl2. Pyrrolidines 2–5 used in biochemical evaluation were lyophilized before use. The inhibitors 2–5 were pre-incubated with the enzyme in the buffer for 5 min at rt and the reaction was started by addition of the substrate. The reactions were terminated with two volumes (0.1 mL) of 0.5 M sodium carbonate and the production of p-nitrophenol was measured at 405 nm using a multimode reader Mithras LB943 (Berthold Technologies). The IC50 value was determined with 2 mM pNP-Man. All biochemical assays were performed in 96 well microplates in triplicate.

[2] = biological target: lysosomal α-mannosidase II (LManII) (Drosophila melanogaster, UniProt Q9VKV1); experiment: Inhibition of lysosomal α-mannosidase II (LManII), pNP-Man substrate; format: biochemical; conditions: n.i. = no inhibition, 2 mM pNP-Man, pH 5.2
lysosomal α-mannosidase II (LManII), sequence (Q9VKV1 entry or part of it): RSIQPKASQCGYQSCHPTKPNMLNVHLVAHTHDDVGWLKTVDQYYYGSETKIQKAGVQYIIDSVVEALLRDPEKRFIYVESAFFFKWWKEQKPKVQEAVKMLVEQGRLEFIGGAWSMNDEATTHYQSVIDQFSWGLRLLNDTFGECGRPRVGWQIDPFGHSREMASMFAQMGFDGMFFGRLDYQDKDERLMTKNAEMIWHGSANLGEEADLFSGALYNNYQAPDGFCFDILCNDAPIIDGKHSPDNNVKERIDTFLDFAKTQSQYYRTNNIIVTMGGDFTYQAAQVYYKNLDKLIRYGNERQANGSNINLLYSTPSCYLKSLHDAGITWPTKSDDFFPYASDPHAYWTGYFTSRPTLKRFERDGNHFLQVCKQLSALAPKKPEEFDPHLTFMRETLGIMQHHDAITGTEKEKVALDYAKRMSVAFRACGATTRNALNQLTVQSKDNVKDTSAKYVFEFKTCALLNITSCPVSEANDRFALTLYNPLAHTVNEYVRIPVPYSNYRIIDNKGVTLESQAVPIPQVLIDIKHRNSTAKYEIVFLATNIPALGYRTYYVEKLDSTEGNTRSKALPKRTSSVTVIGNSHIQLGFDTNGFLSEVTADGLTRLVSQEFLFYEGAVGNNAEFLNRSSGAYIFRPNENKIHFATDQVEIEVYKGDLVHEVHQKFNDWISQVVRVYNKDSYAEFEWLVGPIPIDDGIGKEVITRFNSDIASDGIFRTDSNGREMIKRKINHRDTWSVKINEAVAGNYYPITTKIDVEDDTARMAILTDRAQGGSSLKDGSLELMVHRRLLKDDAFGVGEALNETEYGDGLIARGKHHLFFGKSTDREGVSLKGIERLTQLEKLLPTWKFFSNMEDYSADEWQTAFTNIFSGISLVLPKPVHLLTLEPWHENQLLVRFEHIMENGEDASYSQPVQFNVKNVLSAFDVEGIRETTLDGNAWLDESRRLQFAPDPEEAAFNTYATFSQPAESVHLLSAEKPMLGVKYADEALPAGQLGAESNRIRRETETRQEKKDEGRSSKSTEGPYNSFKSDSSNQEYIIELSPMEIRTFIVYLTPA
Experimental: as §1

[3] = biological target: T1, Jack bean α-mannosidase (JBMan) (Canavalia ensiformis, UniProt C0HJB3); experiment: Inhibition of jack bean α-mannosidase (JBMan), pNP-Man substrate; format: biochemical; conditions: n.i. = no inhibition, 2 mM pNP-Man; for JBMan (%) inhibition in the presence of 2 mM inhibitor concentration: pH 5.0; for inhibition at 2000 µM: pH 5, 2 mM inhibitor, read-out: JBMan (%) inhibition in the presence of 2 mM inhibitor concentration
T1 construct: purchased
T1 sequence (C0HJB3 1-981): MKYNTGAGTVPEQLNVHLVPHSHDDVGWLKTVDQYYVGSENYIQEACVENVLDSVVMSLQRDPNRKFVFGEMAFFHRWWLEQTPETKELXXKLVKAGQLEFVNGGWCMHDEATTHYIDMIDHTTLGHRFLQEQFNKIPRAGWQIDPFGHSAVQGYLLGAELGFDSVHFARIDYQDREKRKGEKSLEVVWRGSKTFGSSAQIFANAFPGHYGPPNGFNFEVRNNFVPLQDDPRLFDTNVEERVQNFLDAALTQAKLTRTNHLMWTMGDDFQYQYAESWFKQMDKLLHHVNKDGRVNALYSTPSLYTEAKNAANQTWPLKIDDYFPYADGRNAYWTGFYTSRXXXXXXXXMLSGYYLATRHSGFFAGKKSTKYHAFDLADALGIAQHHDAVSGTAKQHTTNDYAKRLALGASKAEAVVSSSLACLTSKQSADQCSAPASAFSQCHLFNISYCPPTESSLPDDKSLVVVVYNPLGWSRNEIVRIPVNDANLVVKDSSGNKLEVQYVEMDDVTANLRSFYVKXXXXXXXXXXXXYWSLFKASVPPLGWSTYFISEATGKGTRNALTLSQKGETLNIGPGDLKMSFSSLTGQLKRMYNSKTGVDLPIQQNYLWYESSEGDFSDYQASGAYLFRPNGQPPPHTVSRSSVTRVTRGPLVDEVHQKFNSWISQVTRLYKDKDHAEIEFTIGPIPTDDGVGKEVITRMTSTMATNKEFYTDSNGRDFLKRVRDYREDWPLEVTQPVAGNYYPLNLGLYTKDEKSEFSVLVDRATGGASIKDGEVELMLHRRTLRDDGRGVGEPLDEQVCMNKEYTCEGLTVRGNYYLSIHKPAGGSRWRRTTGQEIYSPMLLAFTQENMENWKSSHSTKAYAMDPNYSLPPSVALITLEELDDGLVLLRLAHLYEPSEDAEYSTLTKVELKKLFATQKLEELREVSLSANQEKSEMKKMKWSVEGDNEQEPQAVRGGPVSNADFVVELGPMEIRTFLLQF
Experimental: as §1

[4] = pH 6.0, 0.5 mM CoCl2, 37 °C, read-out: GMIIb [IC50 (M)]

Row | Structure (SMILES) | IC50 [1, 4] [M] | LmanII inhibition in the presence of 2 mM inhibitor concentration [2] | JBMan (%) inhibition in the presence of 2 mM inhibitor concentration [3] | inhibition at 2000 µM [3] [%] | melting point [°C] | IC50 ([1]; pH 6.0, read-out: GMIIb IC50) [M] | fold decrease in inhibition activity against GMIIb in comparison with 1a [1]
1 | C[C@H]1[C@@H](O)[C@@H](O)CN1Cc1ccccc1 [Compound 2a] | 0.00036 | n.i.^a | n.i. |  |  |  | 
2 | C[C@H]1[C@@H](O)[C@@H](O)CN1Cc1ccc(Br)cc1 [Compound 2b] | 0.00035 | n.i.^a | n.i. |  |  |  | 
3 | C[C@H]1[C@@H](O)[C@@H](O)CN1Cc1ccc(I)cc1 [Compound 2c] | 0.0003 | n.i.^a | n.i. |  |  |  | 
4 | CC[C@H]1[C@@H](O)[C@@H](O)CN1Cc1ccccc1 [Compound 3a] | 0.00075 | n.i.^a |  | 3 | 76 to 78 |  | 
5 | CC[C@H]1[C@@H](O)[C@@H](O)CN1Cc1ccc(Br)cc1 [Compound 3b] | 0.00095 | n.i.^a |  | 14 |  |  | 
6 | CC[C@H]1[C@@H](O)[C@@H](O)CN1Cc1ccc(I)cc1 [Compound 3c] | 0.00045 | n.i.^a |  | 39 |  | < 0.0005 | 
7 | C[C@@H](O)[C@H]1[C@@H](O)[C@@H](O)CN1Cc1ccccc1 [Compound 4a] | 0.0018 | n.i.^a |  | 2 |  |  | about 25 fold
8 | C[C@@H](O)[C@H]1[C@@H](O)[C@@H](O)CN1Cc1ccc(Br)cc1 [Compound 4b] | 0.0016 | n.i.^a |  | 4 |  |  | 
9 | C[C@@H](O)[C@H]1[C@@H](O)[C@@H](O)CN1Cc1ccc(I)cc1 [Compound 4c] | 0.0019 | n.i.^a |  | 17 |  |  | 
10 | C[C@H](O)[C@H]1[C@@H](O)[C@@H](O)CN1Cc1ccccc1 [Compound 5a, (2S,3R,4S)-1-Benzyl-2-((S)-1-hydroxyethyl)pyrrolidine-3,4-diol] | 0.00195 | n.i.^a |  | 21 |  |  | about 25 fold
11 | C[C@H](O)[C@H]1[C@@H](O)[C@@H](O)CN1Cc1ccc(Br)cc1 [Compound 5b, (2S,3R,4S)-1-(4-Bromobenzyl)-2-((S)-1-hydroxyethyl)pyrrolidine-3,4-diol] | 0.00265 | n.i.^a |  | 40 |  |  | 
12 | C[C@H](O)[C@H]1[C@@H](O)[C@@H](O)CN1Cc1ccc(I)cc1 [Compound 5c, (2S,3R,4S)-1-(4-Iodobenzyl)-2-((S)-1-hydroxyethyl)pyrrolidine-3,4-diol] | 0.00295 | n.i.^a | 38% | 40 |  |  | 
